In brackets after ≈: the same amount, converted by molar mass. Counter-ions that a name gives are not always drawn. Like-named read-outs stand apart in the source and are kept apart here.
How the values were obtained:
[1] = Solubility measurements by gravimetric method in solvents at 23° C. and 50° C.; type: physicochemical; conditions: non-crystalline freebase; for solubility at 2 days: organic solvent or mixture, thermodynamic from solid, read-out: Solubility
Procedure: Solubility measurements were done by gravimetric method in 20 different solvents at two temperatures (23° C. and 50° C.). About 20-30 mg of Form A, the synthesis of which is described below, was weighed and 0.75 mL solvent was added to form a slurry. The slurry was then stirred for two days at the specified temperature. The vial was centrifuged and the supernatant was collected for solubility measurement through gravimetric method. The saturated supernatant was transferred into pre-weighed 2 mL HPLC vials and weighed again (vial+liquid). The uncapped vial was then left on a 50° C. hot plate to slowly evaporate the solvent overnight. The vials were then left in the oven at 50° C. and under vacuum to remove the residual solvent so that only the dissolved solid remained. The vial was then weighed (vial+solid). From these three weights; vial, vial+liquid and vial+solid; the weight of dissolved solid and the solvent were calculated. Then using solvent density the solubility was calculated as mg solid/mL of solvent.
20-30 mg of Form A was weighed into 2 mL vial and 500 μL MeOH solvent system as outlined in the table was added. If dissolved, more solids were added to form the slurry. The slurries were then stirred for two days. The vials were centrifuged and the supernatant was collected for solubility measurement through gravimetric method by evaporation at 50° C. XRPD analysis was conducted on the solid after filtration of the slurries.
For the sake of comparison, the solubility of Compound 1, i.e., the non-crystalline freebase, was also measured in two solvent systems to see the effect of water.

[2] = Solubility in water and simulated fluids at 37° C. (slurry, HPLC; XRPD of residual solid); type: physicochemical; conditions: values based on hemi-sulfate sesqui-hydrate salt, hemisulfate salt
Procedure: Solubility of Patterns A, B and D were measured in water. The solids were slurried in the fluids for two days and at 37° C. The supernatant was syringe filtered and used for HPLC analysis. For Patterns A and D the solubility measurement was repeated and the sample was taken after 1 hr slurry. A calibration curve was developed using Pattern A. This was not assay corrected and therefore the solubility values are based on the hemi-sulfate, sesqui-hydrate salt.
Both Patterns B and D converted to Pattern A after two days slurry. Pattern D also converted to Pattern A within 1 hour slurry in Fasted state simulated gastric fluid (FaSSGF) or water. […] This could be because of the conversion of Patterns B and D to Pattern A. The solubility data and the resulting XRPD Pattern after the measurement are reported in Table 21.

[3] = Dynamic Vapor Sorption (DVS); type: physicochemical; conditions: hemisulfate salt; for moisture picked up in DVS: 2% to 95% relative humidity, temperature not stated; for XRPD after DVS: Form A: DVS at 25° C. and 40° C.
Procedure: Dynamic Vapor Sorption (DVS) was done using a DVS Intrinsic 1. The sample is loaded into a sample pan and suspended from a microbalance. A typical sample mass for DVS measurement is 25 mg. Nitrogen gas bubbled through distilled water provides the desired relative humidity. A typical measurement comprises the steps: • 1. Equilibrate at 50% RH • 2. 50% to 2%. (50%, 40%, 30%, 20%, 10% and 2%) • a. Hold minimum of 5 mins and maximum of 60 minutes at each humidity. The pass criteria is less than 0.002% change • 3. 2% to 95% (2%, 10%, 20%, 30%, 40%, 50%, 60%, 70%, 80%, 90%, 95%) • b. Hold minimum of 5 mins and maximum of 60 minutes at each humidity. The pass criteria is less than 0.002% change • 4. 95% to 2% (95%, 80%, 70%, 60%, 50%, 40%, 30%, 20%, 10%, 2%) • c. Hold minimum of 5 mins and maximum of 60 minutes at each humidity. The pass criteria is less than 0.002% change • 5. 2% to 50% (2%, 10%, 20%, 30%, 40%, 50%) • d. Hold minimum of 5 mins and maximum of 60 minutes at each humidity. The pass criteria is less than 0.002% change
(§1) The water content by Karl Fisher was about 5.3%. […] A DVS isotherm taken at 40° C. was essentially the same as the one at 25° C. […] Humidity test was conducted on Form A with exposure to 11%, 48%, and 75% relative humidity at 40° C. for 2 weeks followed by XRPD analysis. […] Crystallographic data for Form A is as follows:
Form B tends to hold substantial amount of solvent.
(§2) Form D was determined to be anhydrous with a melting peak at 239° C. See e.g., FIG. 9. DVS of Pattern D was performed and solid picked up about 2% moisture from 2% to 95% relative humidity.

[4] = Humidity / desiccant exposure test followed by XRPD analysis; type: physicochemical; conditions: one week exposure to 75% relative humidity at 40° C.
Procedure: FIG. 5 (i) depicts X-ray powder diffraction pattern (XRPD) overlay for crystalline hemisulfate salt Form A and after exposure to 11%, 48%, and 75% relative humidity and 40° C. for two weeks. […] FIG. 5 (ii) depicts XRPD overlay for crystalline hemisulfate salt Form A and after exposure to phosphorus pentoxide (P2O5) granules at room temperature and 50° C. for one week, as well as ambient temperature in a vial for 24 hrs.
as §1, §2

[5] = Pharmacokinetic evaluation after single PO suspension dose; type: in vivo, Sprague-Dawley rat; conditions: for AUC 0-last / Cmax: PO 200 mg/kg (free base equivalent), suspension in 0.5% methyl-cellulose, male Sprague-Dawley rats, n=6, plasma, 200 mg/kg; for AUC fold higher compared to crystalline free-base of Compound 1 / Cmax fold higher compared to crystalline free-base of Compound 1: PO suspension 200 mg/kg, fasted male Sprague-Dawley rats
Procedure: Single dose in suspension using Crystalline Form A micronized and unmicronized, and crystalline free base of Compound 1 were administered to male Sprague-Dawley rat at 200 mg/kg. Blood samples were collected in the presence of K2EDTA, and were centrifuged to obtain plasma. The plasma was then analyzed for these compounds by LC/MS.
All animals involved in the dosing schedule were weighted and assigned numbers. All suspension formulations were freshly made prior use. Each solution was prepared at 40 mg/mL in 0.5% methyl-cellulose solution in water. The tubes were vortex for 2 min and sonicate for 30 min to achieve a white homogenous suspension.
All animals (n=6/group) were dosed orally in a volume of 5 mL/kg. Following dosing, each rat was bled at each of the designated time points. Blood samples were collected from the tail vain. Blood aliquots (150 μl) were collected in tubes coated with K2EDTA, mixed gently then kept on ice and centrifuged at 2,000 g for 5 minutes at 4° C., within 15 min of collection. The plasma layer was collected and maintained frozen at −70° C. until further processing.
Bioanalytical quantitation using HPLC/triple quadruple mass spectrometry (HPLC-MS) was performed. Plasma concentrations and T½ were calculated and reported.
A 1 mg/mL standard solution in DMSO:methanol (20:80, v/v) was diluted in 50 fold and subsequently serial diluted in 50% methanol water. Aliquots (10 μl) of the serial dilutions were mixed with 190 ul of control plasma for use as a standard curve. Plasma samples (50 μl) and standard samples (non-diluted) were diluted 10× with ice cold acetonitrile containing 40 ng/ml dexamethasone as internal standard. Acetonitrile precipitated samples and standards were vortexed at 5 g for 2 min (IKA vortex), then centrifuged at 5000 g for 10 min.
For 10-fold dilution standard samples: an aliquot of 5 μL sample was added with 45 μL control plasma to obtain the diluted samples. If a 50-fold dilution standard sample was required: an aliquot of 10 μL 10-fold diluted sample was added with 40 μL blank plasma to obtain the final diluted samples. Then, the exaction procedure for diluted samples was same as those for non-diluted samples.
Samples and standards (10 μl) were injected into the LC-MS system, as described below. Concentrations of dose solutions were reported in mg/mL.
LC: 7.5 μl of each sample and standard were injected onto a Waters BEH C18 (2.1×50 mm, 1.7 μm, maintained at 60° C.) column at 0.6 mL/min by an UPLC. The column was equilibrated at 10% acetonitrile. Compounds were eluted with a gradient to 95% acetonitrile. All mobile phase contained 0.025% (v/v) formic acid with 1 mM ammonium acetate.
MS: Column eluent was analyzed by electrospray ionization into a triple quadruple mass spectrometer system. Eluent composition was analyzed for ion pair specifics to the internal standard and the analyte respectively.
Experimental samples were compared with standard curve samples to determine compound concentrations. Average compound concentrations (in ng/mL±standard deviation) were reported for each time-point. […] PK analysis was performed in Phoenix Winnonlin; Cmax were determined as the maximum average concentration observed at a given point, the area under the curve (AUC) was reported for t0 to tlast ours.

[6] = Solubility in phosphate buffer pH7.4; type: physicochemical

`O=C(c1ccc(NS(=O)(=O)c2cccc3cccnc23)cc1)N1CCN(CC2CC2)CC1` [Compound 1, N-(4-(4-(cyclopropylmethyl)piperazine-1-carbonyl)phenyl)quinoline-8-sulfonamide] gave a solubility at 2 days ([1]; MeOAc:MeOH (1:1) and 2.5 vol % water, 23 °C, MeOAc:MeOH (1:1) and 2.5 vol % water, 23° C.) of 15 mg/mL (≈ 33.3 mM), a solubility at 2 days ([1]; MeOAc:MeOH (1:1) and 2.5 vol % water, 50 °C, MeOAc:MeOH (1:1) and 2.5 vol % water, 50° C.) of 36 mg/mL (≈ 79.9 mM) and a solubility at 2 days ([1]; MeOAc:MeOH (1:1), 23 °C, MeOAc:MeOH (1:1), 23° C.) of 15 mg/mL (≈ 33.3 mM). For the same compound, the solubility at 2 days ([1]; MeOAc:MeOH (1:1), 50 °C, MeOAc:MeOH (1:1), 50° C.) was 34 mg/mL (≈ 75.5 mM) and the “impact of 2.5 vol % water on solubility” value ([1]; MeOAc:MeOH (1:1)) was “did not have any impact”.
Compound `O=C(c1ccc(NS(=O)(=O)c2cccc3cccnc23)cc1)N1CCN(CC2CC2)CC1` [Form D, N-(4-(4-(cyclopropylmethyl)piperazine-1-carbonyl)phenyl)quinoline-8-sulfonamide hemisulfate salt] has a Solubility ([2]; FaSSGF, slurry time 1 hr) of 5.43 mg Solid/mL solvent, a Solubility ([2]; FaSSGF, slurry time 2 days, listed as D) of 5.94 mg Solid/mL solvent and a Solubility ([2]; FaSSIF, slurry time 2 days, listed as D) of 3.49 mg Solid/mL solvent. For the same compound, the Solubility ([2]; Water, slurry time 1 hr) was 2.62 mg Solid/mL solvent, the Solubility ([2]; Water, slurry time 2 days, listed as D) was 2.71 mg Solid/mL solvent and the “moisture picked up in DVS” value ([3]; listed as Pattern D) was “about 2%”. The “XRPD after DVS” value ([3]; listed as Pattern D) was “remained unchanged” and the “form after humidity exposure” value [4] was “did not change the form”.
`O=C(c1ccc(NS(=O)(=O)c2cccc3cccnc23)cc1)N1CCN(CC2CC2)CC1` [Crystalline free-base of Compound 1, N-(4-(4-(cyclopropylmethyl)piperazine-1-carbonyl)phenyl)quinoline-8-sulfonamide] showed an AUC 0-last [5] of 125 ± 85.8 µg·h/mL and a Cmax [5] of 17900 ± 3600 ng/mL.
With `O=C(c1ccc(NS(=O)(=O)c2cccc3cccnc23)cc1)N1CCN(CC2CC2)CC1` [Crystalline Form A (micronized), 1-(cyclopropylmethyl)-4-(4-(quinoline-8-sulfonamido)benzoyl)piperazin-1-ium hemisulfate sesquihydrate] the AUC 0-last ([5]; hemisulfate sesquihydrate) was 478 ± 87.9 µg·h/mL, the Cmax ([5]; hemisulfate sesquihydrate) was 36700 ± 6800 ng/mL and the “AUC fold higher compared to crystalline free-base of Compound 1” value ([5]; hemisulfate sesquihydrate) was 3.8 fold. For the same compound, the “Cmax fold higher compared to crystalline free-base of Compound 1” value ([5]; hemisulfate sesquihydrate) was 2 fold and the “solubility compared to crystalline free-base of Compound 1” value [6] was “more soluble”.
In the case of `O=C(c1ccc(NS(=O)(=O)c2cccc3cccnc23)cc1)N1CCN(CC2CC2)CC1` [Crystalline Form A (unmicronized), 1-(cyclopropylmethyl)-4-(4-(quinoline-8-sulfonamido)benzoyl)piperazin-1-ium hemisulfate sesquihydrate], the AUC 0-last ([5]; hemisulfate sesquihydrate) is reported as 356 ± 82.9 µg·h/mL, the Cmax ([5]; hemisulfate sesquihydrate) is reported as 29800 ± 5300 ng/mL and the “AUC fold higher compared to crystalline free-base of Compound 1” value ([5]; hemisulfate sesquihydrate) is reported as 2.7 fold. For the same compound, the “Cmax fold higher compared to crystalline free-base of Compound 1” value ([5]; hemisulfate sesquihydrate) was 1.6 fold and the “solubility compared to crystalline free-base of Compound 1” value [6] was “more soluble”.
Work on `O=C(c1ccc(NS(=O)(=O)c2cccc3cccnc23)cc1)N1CCN(CC2CC2)CC1` [Form B, N-(4-(4-(cyclopropylmethyl)piperazine-1-carbonyl)phenyl)quinoline-8-sulfonamide hemisulfate salt] yielded a Solubility ([2]; FaSSGF, slurry time 2 days, listed as B) of 6.53 mg Solid/mL solvent, a Solubility ([2]; FaSSIF, slurry time 2 days, listed as B) of 0.20 mg Solid/mL solvent and a Solubility ([2]; Water, slurry time 2 days, listed as B) of 3.02 mg Solid/mL solvent. The “moisture picked up in DVS” value [3] was “about 14%” and the “XRPD after DVS” value [3] was “converted to a different Form K”.

— US11254652B2, “Crystalline forms of N-(4-(4-(cyclopropymethyl)piperazine-1-carbonyl)phenyl)quinoline-8-sulfonamide” (Agios Pharmaceuticals, Inc., priority 2017, dated 2022)
